US20240041042A1, “1-(PYRIDYL)-5-AZINYLPYRAZOLE DERIVATIVES, AND THEIR USE FOR CONTROL OF UNDESIRED PLANT GROWTH” (Bayer Aktiengesellschaft, priority 2020, published 2024)
Read-outs that look alike come from different tables or passages of the source.

Assays:
Type in all cases: in vivo
Setaria viridis (SETVI) = assay: Post-emergence herbicidal action against SETVI
Summary of the method: (§1)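 Greenhouse plants sprayed at the one-leaf stage, 2–3 weeks after sowing, with WP or EC formulations plus 0.5% additive at 600 l/ha water. Activity rated visually after about 3 weeks versus untreated controls (100% = dead, 0% = like control), at 320 g/ha or lower.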

Viola tricolor (VIOTR) = assay: Post-emergence herbicidal action against VIOTR
Summary of the method: as §1

[1] = system: Matricaria inodora (MATIN); assay: Post-emergence herbicidal action against MATIN
Summary of the method: as §1

Oryza sativa (ORYSA) = details: crop plant compatibility
Summary of the method: (§2)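 Percent effect on the crop was judged by eye against untreated controls, where 0% means like control and 100% means dead plants. Plants had been sprayed post-emergence at the one-leaf stage and then kept under optimum greenhouse conditions for about 3 weeks.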

[2] = system: Digitaria sanguinalis (DIGSA); assay: Post-emergence herbicidal action against DIGSA; details: visual rating about 3 weeks after treatment
Method: Seeds of monocotyledonous and dicotyledonous weeds and crop plants are placed in sandy loam in plastic or organic planting pots, covered with soil and cultivated in a greenhouse under controlled growth conditions. 2 to 3 weeks after sowing, the test plants are treated at the one-leaf stage. The compounds of the invention, formulated in the form of wettable powders (WP) or as emulsion concentrates (EC), are then sprayed onto the green parts of the plants as aqueous suspension or emulsion with addition of 0.5% additive at a water application rate of 600 l/ha (converted). After the test plants have been kept in the greenhouse under optimum growth conditions for about 3 weeks, the activity of the preparations is rated visually in comparison to untreated controls. For example, 100% activity=the plants have died, 0% activity=like control plants.
Tables B1 to B13 below show the effects of selected compounds of the general formula (I) according to Table 1 on various harmful plants and at an application rate corresponding to 320 g/ha or lower, which were obtained by the experimental procedure mentioned above. The appendices “a”, “b” and “c” give differentiation by dosage used with otherwise the same harmful plants tested.

[3] = system: Polygonum convolvulus (POLCO); assay: Post-emergence herbicidal action against POLCO
Summary of the method: as §1

[4] = system: Alopecurus myosuroides (ALOMY); assay: Post-emergence herbicidal action against ALOMY; details: visual rating about 3 weeks after treatment vs untreated controls (100% = plants have died, 0% = like control plants)
Summary of the method: as §1

[5] = system: Abutilon theophrasti (ABUTH); assay: Post-emergence herbicidal action against ABUTH; details: visual rating about 3 weeks after treatment vs untreated controls (100% = plants have died, 0% = like control plants)
Summary of the method: as §1

[6] = system: Echinochloa crus-galli (ECHCG); assay: Post-emergence herbicidal action against ECHCG
Summary of the method: as §1

Lolium rigidum (LOLRI) = assay: Post-emergence herbicidal action against LOLRI
Summary of the method: as §1

[7] = system: Amaranthus retroflexus (AMARE); assay: Post-emergence herbicidal action against AMARE
Summary of the method: as §1

Avena fatua (AVEFA) = assay: Post-emergence herbicidal action against AVEFA; details: visual rating about 3 weeks after treatment
Summary of the method: as §1

[8] = system: Pharbitis purpurea (PHBPU); assay: Post-emergence herbicidal action against PHBPU
Summary of the method: as §1

[9] = system: Verconica persica (VERPE); assay: Post-emergence herbicidal action against VERPE
Summary of the method: as §1

Zea mays (ZEAMX) = details: 20 g/ha, ZEAMX, effect in comparison to untreated controls
Summary of the method: as §2

[10] = 20 g/ha, effect vs untreated controls
[11] = 80 g/ha, effect in comparison to untreated controls
[12] = 80 g/ha, visual rating about 3 weeks after treatment vs untreated controls (100% = plants have died, 0% = like control plants)
[13] = 320 g/ha, visual rating about 3 weeks after treatment

Compound	Post-emergence action against SETVI in % (Setaria viridis (SETVI); dosage 80 g/ha)	Post-emergence action against SETVI in % (Setaria viridis (SETVI); dosage 320 g/ha)	Post-emergence action against VIOTR in % (Viola tricolor (VIOTR); 320 g/ha)	Post-emergence action against MATIN in % ([1]; dosage 320 g/ha)	Post-emergence action against ORYSA in % (Oryza sativa (ORYSA); [10])	Post-emergence action against DIGSA in % ([2]; 80 g/ha)	Post-emergence action against DIGSA in % ([2]; 320 g/ha)	Post-emergence action against POLCO in % ([3]; dosage 320 g/ha)	Post-emergence action against ALOMY in % ([4]; 320 g/ha)	Post-emergence action against ABUTH in % ([5]; 320 g/ha)	Post-emergence action against ECHCG in % ([6]; dosage 80 g/ha)	Post-emergence action against ECHCG in % ([6]; dosage 320 g/ha)	Post-emergence action against LOLRI in % (Lolium rigidum (LOLRI); dosage 80 g/ha)	Post-emergence action against LOLRI in % (Lolium rigidum (LOLRI); dosage 320 g/ha)	Post-emergence action against AMARE in % [7, 13]	Post-emergence action against VIOTR in % (Viola tricolor (VIOTR); 80 g/ha)	Post-emergence action against AVEFA in % (Avena fatua (AVEFA); 320 g/ha)	Post-emergence action against PHBPU in % ([8]; dosage 320 g/ha)	Post-emergence action against VERPE in % ([9]; 320 g/ha, VERPE)	Post-emergence action against VERPE in % ([9]; dosage 80 g/ha)	also measured
COC(=O)C(C)OC(=O)C(C)Oc1nn(-c2ccccn2)c(-c2cncc(F)c2)c1Br (mixture of isomers) [Example I-176]	80%	80%	80%	80%	0%	80%	90%	80%	90%	80%	80%	90%	80%	80%							Post-emergence action against ORYSA in % (Oryza sativa (ORYSA); [11]): 10%; Post-emergence action against POLCO in % ([3]; dosage 80 g/ha): 80%
COC(=O)[C@@H](C)Oc1nn(-c2ncccc2F)c(-c2cncc(F)c2)c1C1CC1 [Example I-144]	90%	90%	90%	90%	0%	90%	90%	80%	90%	90%	90%	90%	90%	90%	90%	90%	90%	90%	90%	90%	Post-emergence action against AMARE in % [7, 12]: 90%; Post-emergence action against MATIN in % ([1]; dosage 80 g/ha): 90%; Post-emergence action against AVEFA in % (Avena fatua (AVEFA); 80 g/ha): 90%; Post-emergence action against PHBPU in % ([8]; dosage 80 g/ha): 90%; Post-emergence action against POLCO in % ([3]; dosage 80 g/ha): 80%; Post-emergence action against ALOMY in % ([4]; 80 g/ha): 90%; Post-emergence action against ABUTH in % ([5]; 80 g/ha): 80%
COC(=O)[C@@H](C)Oc1nn(-c2ncccc2F)c(-c2cncc(F)c2)c1Cl [Example I-146]	90%	90%	90%	90%	0%		90%	90%	90%	90%	90%	90%		90%	90%	90%	90%	90%	90%	90%	Post-emergence action against AMARE in % [7, 12]: 90%; Post-emergence action against MATIN in % ([1]; dosage 80 g/ha): 90%; Post-emergence action against AVEFA in % (Avena fatua (AVEFA); 80 g/ha): 90%; Post-emergence action against PHBPU in % ([8]; dosage 80 g/ha): 90%; Post-emergence action against POLCO in % ([3]; dosage 80 g/ha): 80%; Post-emergence action against ABUTH in % ([5]; 80 g/ha): 80%
CCOC(=O)[C@@H](C)Oc1nn(-c2ncccc2F)c(-c2cncc(F)c2)c1C1CC1 [Example I-172]	80%	80%	90%	90%	20%	80%	90%	80%	90%	80%	80%	90%	90%	90%	80%	80%	90%	90%	90%	80%	Post-emergence action against MATIN in % ([1]; dosage 80 g/ha): 90%; Post-emergence action against AVEFA in % (Avena fatua (AVEFA); 80 g/ha): 80%; Post-emergence action against PHBPU in % ([8]; dosage 80 g/ha): 80%; Post-emergence action against ALOMY in % ([4]; 80 g/ha): 90%
CCOC(=O)[C@@H](C)Oc1nn(-c2nc(F)ccc2F)c(-c2cncc(F)c2)c1C1CC1 [Example I-177]	90%	90%	100%	90%	0%		90%	90%	100%	90%	100%	100%	100%	100%	90%	100%	90%	90%	100%	100%	Post-emergence action against AMARE in % [7, 12]: 90%; Post-emergence action against MATIN in % ([1]; dosage 80 g/ha): 90%; Post-emergence action against AVEFA in % (Avena fatua (AVEFA); 80 g/ha): 90%; Post-emergence action against PHBPU in % ([8]; dosage 80 g/ha): 90%; Post-emergence action against POLCO in % ([3]; dosage 80 g/ha): 90%; Post-emergence action against ABUTH in % ([5]; 80 g/ha): 90%
COC(=O)[C@@H](C)Oc1nn(-c2ncccc2F)c(-c2cncc(F)c2)c1I [Example I-197]	90%	90%	90%	90%	0%	90%	90%	90%	90%	90%	90%	90%	90%	90%	90%	90%	90%	100%	90%	90%	Post-emergence action against AMARE in % [7, 12]: 90%; Post-emergence action against MATIN in % ([1]; dosage 80 g/ha): 80%; Post-emergence action against AVEFA in % (Avena fatua (AVEFA); 80 g/ha): 90%; Post-emergence action against ORYSA in % (Oryza sativa (ORYSA); [11]): 10%; Post-emergence action against PHBPU in % ([8]; dosage 80 g/ha): 90%; Post-emergence action against POLCO in % ([3]; dosage 80 g/ha): 90%; Post-emergence action against ALOMY in % ([4]; 80 g/ha): 90%; Post-emergence action against ABUTH in % ([5]; 80 g/ha): 90%
COC(=O)[C@@H](C)Oc1nn(-c2ccccn2)c(-c2ccc(F)nc2)c1Br [Example I-252]	80%	80%	80%	80%	10%	90%	90%	80%	90%		80%	90%	80%	80%			80%	90%	80%	80%	Post-emergence action against AVEFA in % (Avena fatua (AVEFA); 80 g/ha): 80%; Post-emergence action against ZEAMX in % (crop plant compatibility) (Zea mays (ZEAMX)): 10%; Post-emergence action against ALOMY in % ([4]; 80 g/ha): 80%
COC(=O)COc1nn(-c2ncccc2F)c(-c2ccc(F)nc2)c1Cl [Example I-304]	90%	90%	90%	90%		90%	90%		90%	90%	80%	90%		90%	90%	80%	90%	90%	90%	80%	Post-emergence action against AMARE in % [7, 12]: 80%; Post-emergence action against MATIN in % ([1]; dosage 80 g/ha): 90%; Post-emergence action against ZEAMX in % (crop plant compatibility) (Zea mays (ZEAMX)): 20%; Post-emergence action against PHBPU in % ([8]; dosage 80 g/ha): 80%; Post-emergence action against ABUTH in % ([5]; 80 g/ha): 80%
